Assay results as given in patent publication US11207296B2, “XPA inhibitor compounds and their use” (INDIANA UNIVERSITY RESEARCH AND TECHNOLOGY CORPORATION, priority 2017, dated 2021).
Values joined by “and” are separate entries in the source; they are usually repeats but may differ in a detail not shown here. Identical values can stand only once.

target: full length XPA protein (Homo sapiens, UniProt P23025); experiment: biochemical; conditions: IC50 (μM), EMSA, 32P labeled 30 bp duplex DNA containing a single 1,2 dGpG cisplatin adduct, several values in a cell = separate determinations
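Also: XPA expressed in Sf9 cells, preincubated with compound on ice before adding DNA, complex resolved on native polyacrylamide gel at 4 °C, PhosphorImager band intensity, binding inhibition versus DMSO.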
Experimental: Purified XPA (lanes 2-18) was mixed with DMSO (Lane 2, C) control or the indicated compound at a concentration of 50 μM (Lanes 3-18). ^32P labeled ds-platinum damaged DNA was added and incubation continued for 30 minutes on ice. The products were separated on a 6% native gel by electrophoresis at 4° C. Products were detected and quantified by PhosphorImager analysis.
EMSA was carried out using previously described procedure with the following modification. Reactions were performed in volume of 20 μL, containing a ^32P labeled 30 bp duplex DNA containing a single 1,2 dGpG cisplatin adduct. Compounds were pre-incubated on ice with the indicated amount of XPA and products separated by electrophoresis on a non-denaturing 6% polyacrylamide gel. Gels were cooled, loaded and electrophoresis performed at 4° C. Gels were used to expose a Phosphorlmager screen and band intensity determined and % binding and inhibition calculated as we have previously described.

Sequence of full length XPA protein (P23025 whole entry): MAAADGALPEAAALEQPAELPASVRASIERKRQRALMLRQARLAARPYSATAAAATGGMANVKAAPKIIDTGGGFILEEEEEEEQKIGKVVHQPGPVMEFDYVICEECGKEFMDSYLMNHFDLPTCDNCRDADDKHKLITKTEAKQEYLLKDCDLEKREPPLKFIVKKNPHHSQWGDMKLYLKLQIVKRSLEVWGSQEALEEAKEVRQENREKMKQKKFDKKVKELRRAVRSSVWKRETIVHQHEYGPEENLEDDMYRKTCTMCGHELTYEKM

| SMILES | IC50 |
| --- | --- |
| CC1=NN(c2cccc(C(=O)O)c2)C(=O)C1=Cc1ccc(-c2ccc(Cl)c(C(=O)NCC3CCCCC3)c2)o1 (mixture of isomers) [NG-04-274, 3-(4-((5-(4-chloro-3-((cyclohexylmethyl)carbamoyl)phenyl)furan-2-yl)methylene)-3-methyl-5-oxo-4,5-dihydro-1H-pyrazol-1-yl)benzoic acid] | 35 µM |
| CCOC(=O)c1cccc(N2N=C(C(F)(F)F)C(=Cc3ccc(-c4ccc(Cl)c(C(=O)Nc5cccc(OC)c5)c4)o3)C2=O)c1 (mixture of isomers) [NG-04-311, ethyl 3-(4-((5-(4-chloro-3-((3-methoxyphenyl)carbamoyl)phenyl)furan-2-yl)methylene)-5-oxo-3-(trifluoromethyl)-4,5-dihydro-1H-pyrazol-1-yl)benzoate] | > 50 µM |
| CCOC(=O)c1cccc(N2N=C(C)/C(=C/c3ccc(-c4ccc(Cl)c(C(=O)O)c4)o3)C2=O)c1 [Compound 31a, (Z)-2-Chloro-5-(5-((1-(3-(ethoxycarbonyl)phenyl)-3-methyl-5-oxo-1H-pyrazol-4(5H)-ylidene)methyl)furan-2-yl)benzoic acid] | > 25 µM |
| CCOC(=O)c1cccc(N2N=C(C)/C(=C/c3ccc(-c4ccc(Cl)c(C(=O)NCc5ccc(F)cc5)c4)o3)C2=O)c1 [Compound 33a, (Z)-Ethyl 3-(4-((5-(4-chloro-3-((4-fluorobenzyl)carbamoyl)phenyl)furan-2-yl)methylene)-3-methyl-5-oxo-4,5-dihydro-1H-pyrazol-1-yl)benzoate] | > 25 µM |
| CC1=NN(c2cccc(C(=O)O)c2)C(=O)/C1=C\c1ccc(-c2ccc(Cl)c(C(=O)NC3CC3)c2)o1 [Compound 34f, (Z)-3-(4-((5-(4-Chloro-3-(cyclopropylcarbamoyl)phenyl)furan-2-yl)methylene)-3-methyl-5-oxo-4,5-dihydro-1H-pyrazol-1-yl)benzoic acid] | 32 µM |
| CC1=NN(c2cccc(C(=O)O)c2)C(=O)/C1=C\c1ccc(-c2ccc(Cl)c(C(=O)NC3CCOCC3)c2)o1 [Compound 34g, (Z)-3-(4-((5-(4-Chloro-3-((tetrahydro-2H-pyran-4-yl)carbamoyl)phenyl)furan-2-yl)methylene)-3-methyl-5-oxo-4,5-dihydro-1H-pyrazol-1-yl)benzoic acid] | 40 µM |
| CC1=NN(c2cccc(C(=O)O)c2)C(=O)/C1=C\c1ccc(-c2ccc(Cl)c(C(=O)COc3ccccc3Cl)c2)o1 [Compound 2249] | 2.5 µM |
| C=CCCCc1cccc(-c2ccc(/C=C3/C=NN(c4cccc(C(=O)O)c4)C3=O)o2)c1 [Compound 2922] | 3 µM |
| CC1=NN(c2cccc(C(=O)O)c2)C(=O)/C1=C\c1ccc(-c2cccc(C(=O)OC(C)C)c2)o1 [Compound 3125] | 3 µM |
| CC1=NN(c2cccc(C(=O)O)c2)C(=O)C1Cc1ccc(-c2ccc(Cl)c(C(=O)NCc3ccc(F)cc3)c2)o1 (stereo not drawn) [NG-01-65, 3-(4-((5-(4-Chloro-3-((4-fluorobenzyl)carbamoyl)phenyl)furan-2-yl)methyl)-3-methyl-5-oxo-4,5-dihydro-1H-pyrazol-1-yl)benzoic acid] | > 25 µM |
| CC1=NN(c2cccc(C(=O)O)c2)C(=O)C1Cc1ccc(-c2ccc(Cl)c(C(=O)NCC3CC3)c2)o1 (stereo not drawn) [NG-01-72R, 3-(4-((5-(4-Chloro-3-((cyclopropylmethyl)carbamoyl)phenyl)furan-2-yl)methyl)-3-methyl-5-oxo-4,5-dihydro-1H-pyrazol-1-yl)benzoic acid] | 42 µM |
| CC1=NN(c2ccc(C(=O)O)cc2)C(=O)C1Cc1ccc(-c2ccc(Cl)c(C(=O)NCc3ccc(F)cc3)c2)o1 (stereo not drawn) [NG-02-151, 4-(4-((5-(4-Chloro-3-((4-fluorobenzyl)carbamoyl)phenyl)furan-2-yl)methyl)-3-methyl-5-oxo-4,5-dihydro-1H-pyrazol-1-yl)benzoic acid] | 15 µM and 35 µM |
| CCOC(=O)c1cccc(N2N=C(C)C(=Cc3ccc(C(=O)O)o3)C2=O)c1 [NG-02-154, 5-((1-(3-(ethoxycarbonyl)phenyl)-3-methyl-5-oxo-1,5-dihydro-4H-pyrazol-4-ylidene)methyl)furan-2-carboxylic acid] | 45 µM |
| COc1cccc(NC(=O)c2ccc(/C=C3\C(=O)N(c4cccc(C(=O)O)c4)N=C3C)o2)c1 [NG-02-162/ NG-02-162C, (Z)-3-(4-((5-((3-methoxyphenyl)carbamoyl)furan-2-yl)methylene)-3-methyl-5-oxo-4,5-dihydro-1H-pyrazol-1-yl)benzoic acid] | 35 µM |
| COc1cccc(NC(=O)c2cc(-c3ccc(/C=C4\C(=O)N(c5cccc(C#N)c5)N=C4C)o3)ccc2Cl)c1 [NG-03-193, (Z)-2-chloro-5-(5-((1-(3-cyanophenyl)-3-methyl-5-oxo-1,5-dihydro-4H-pyrazol-4-ylidene)methyl)furan-2-yl)-N-(3-methoxyphenyl)benzamide] | > 25 µM |
| COc1cccc(NC(=O)c2cc(-c3ccc(/C=C4\C(=O)N(c5cccc(C(=O)O)c5)N=C4C)s3)ccc2Cl)c1 [NG-03-203, (Z)-3-(4-((5-(4-chloro-3-((3-methoxyphenyl)carbamoyl)phenyl)thiophen-2-yl)methylene)-3-methyl-5-oxo-4,5-dihydro-1H-pyrazol-1-yl)benzoic acid] | 3 µM and 7.5 µM and 11 µM |
| COc1ccc(NC(=O)c2cc(-c3ccc(CC4C(=O)N(c5cccc(C(=O)O)c5)N=C4C)o3)ccc2Cl)cc1OC (stereo not drawn) [NG-03-206, 3-(4-((5-(4-Chloro-3-((3,4-dimethoxyphenyl)carbamoyl)phenyl)furan-2-yl)methyl)-3-methyl-5-oxo-4,5-dihydro-1H-pyrazol-1-yl)benzoic acid] | 11 µM |
| COc1cccc(NC(=O)c2cc(-c3ccc(CC4C(=O)N(c5cccc(C(=O)O)c5)N=C4C)s3)ccc2Cl)c1 (stereo not drawn) [NG-03-207, 3-(4-((5-(4-chloro-3-((3-Methoxyphenyl)carbamoyl)phenyl)thiophen-2-yl)methyl)-3-methyl-5-oxo-4,5-dihydro-1H-pyrazol-1-yl)benzoic acid] | 12.5 µM |
| CC1=NN(c2cccc(C(=O)O)c2)C(=O)/C1=C\c1ccc(-c2ccc(Cl)c(C(=O)O)c2)s1 [NG-03-224, (Z)-5-(5-((1-(3-Carboxyphenyl)-3-methyl-5-oxo-1,5-dihydro-4H-pyrazol-4-ylidene)methyl)thiophen-2-yl)-2-chlorobenzoic acid] | 30 µM |
| CC1=NN(c2cccc(C(=O)O)c2)C(=O)/C1=C\c1ccc(-c2ccc(Cl)c(C(=O)NCc3ccc(F)cc3)c2)s1 [NG-03-227, (Z)-3-(4-((5-(4-Chloro-3-((4-fluorobenzyl)carbamoyl)phenyl)thiophen-2-yl)methylene)-3-methyl-5-oxo-4,5-dihydro-1H-pyrazol-1-yl)benzoic acid] | 7 µM |
| CC1=NN(c2cccc(C(=O)O)c2)C(=O)C1Cc1ccc(-c2ccc(Cl)c(C(=O)NCC3CC3)c2)s1 (stereo not drawn) [NG-03-231, 3-(4-((5-(4-Chloro-3-((cyclopropylmethyl)carbamoyl)phenyl)thiophen-2-yl)methyl)-3-methyl-5-oxo-4,5-dihydro-1H-pyrazol-1-yl)benzoic acid] | 40 µM |
| CC1=NN(c2ccc(C(=O)O)cc2)C(=O)/C1=C\c1ccc(-c2ccc(Cl)c(C(=O)O)c2)s1 [NG-03-234, (Z)-5-(5-((1-(4-Carboxyphenyl)-3-methyl-5-oxo-1,5-dihydro-4H-pyrazol-4-ylidene)methyl)thiophen-2-yl)-2-chlorobenzoic acid] | 12 µM |
| COc1cccc(NC(=O)c2cc(-c3ccc(/C=C4\C(=O)N(c5ccc(C(=O)O)cc5)N=C4C)s3)ccc2Cl)c1 [NG-03-236, (Z)-4-(4-((5-(4-Chloro-3-((3-methoxyphenyl)carbamoyl)phenyl)thiophen-2-yl)methylene)-3-methyl-5-oxo-4,5-dihydro-1H-pyrazol-1-yl)benzoic acid] | 12 µM |
| COc1cccc(NC(=O)c2cc(-c3ccc(CC4C(=O)N(c5ccc(C(=O)O)cc5)N=C4C)s3)ccc2Cl)c1 (stereo not drawn) [NG-03-238, 4-(4-((5-(4-Chloro-3-((3-methoxyphenyl)carbamoyl)phenyl)thiophen-2-yl)methyl)-3-methyl-5-oxo-4,5-dihydro-1H-pyrazol-1-yl)benzoic acid] | 45 µM |
| CC1=NN(c2cccc(C(=O)O)c2)C(=O)/C1=C\c1ccc(-c2ccc(Cl)c(C(=O)NCc3ccccc3)c2)o1 [NG-03-270, (Z)-3-(4-((5-(3-(Benzylcarbamoyl)-4-chlorophenyl)furan-2-yl)methylene)-3-methyl-5-oxo-4,5-dihydro-1H-pyrazol-1-yl)benzoic acid] | 36 µM |
| CC1=NN(c2cccc(C(=O)O)c2)C(=O)/C1=C\c1ccc(-c2ccc(Cl)c(C(=O)NCc3ccccc3Cl)c2)o1 [NG-03-271, (Z)-3-(4-((5-(4-chloro-3-((2-chlorobenzyl)carbamoyl)phenyl)furan-2-yl)methylene)-3-methyl-5-oxo-4,5-dihydro-1H-pyrazol-1-yl)benzoic acid] | 40 µM |
| COc1cccc(CNC(=O)c2cc(-c3ccc(/C=C4\C(=O)N(c5ccc(C(=O)O)cc5)N=C4C)o3)ccc2Cl)c1 [NG-03-286, (Z)-4-(4-((5-(4-Chloro-3-((3-methoxybenzyl)carbamoyl)phenyl)furan-2-yl)methylene)-3-methyl-5-oxo-4,5-dihydro-1H-pyrazol-1-yl)benzoic acid] | 38 µM |
| COc1cccc(CNC(=O)c2cc(-c3ccc(CC4C(=O)N(c5ccc(C(=O)O)cc5)N=C4C)o3)ccc2Cl)c1 (stereo not drawn) [NG-04-294, 4-(4-((5-(4-chloro-3-((3-methoxybenzyl)carbamoyl)phenyl)furan-2-yl)methyl)-3-methyl-5-oxo-4,5-dihydro-1H-pyrazol-1-yl)benzoic acid] | 40 µM |
| CCOC(=O)c1cccc(N2N=C(C(F)(F)F)/C(=C/c3ccc(-c4ccc(Cl)c(C(=O)O)c4)o3)C2=O)c1 [NG-04-300, 2-chloro-5-(5-((1-(3-(ethoxycarbonyl)phenyl)-5-oxo-3-(trifluoromethyl)-1,5-dihydro-4H-pyrazol-4-ylidene)methyl)furan-2-yl)benzoic acid] | 40 µM |
| O=C(O)c1cccc(N2N=C(C(F)(F)F)/C(=C/c3ccc(-c4ccc(Cl)c(C(=O)NCC5CC5)c4)o3)C2=O)c1 [NG-04-304, 3-(4-((5-(4-chloro-3-((cyclopropylmethyl)carbamoyl)phenyl)furan-2-yl)methylene)-5-oxo-3-(trifluoromethyl)-4,5-dihydro-1H-pyrazol-1-yl)benzoic acid] | > 50 µM |
